# Reference: patent EP4667458A1 (Kanaph Therapeutics Inc., priority 2023, dated 2024)
# Legend:
# [1] = tested on: lung cancer cell line H358 having the KRAS G12C variant; assay: SynergyScreen determination of combination concentration (ATPlite 1Step cell viability); format: cell-based; conditions: EFFECT20 applied as final treatment concentration in the combination experiment
# Procedure: The cells were treated by adding 5 µL of a test solution of Example B01 per well to a 384 well plate in which the lung cancer cell line H358 having the KRAS G12C variant was dispensed so that the final concentration of the substance was 31.6 µM to 0.00316 µM in 50 µL of the solution per well. The cells treated with Example B01 were cultured under conditions of 37 °C and 5% carbon dioxide for 72 h or 120 h. In order to measure cell viability, each well was treated with 24 µL of ATPlite 1Step™ (PerkinElmer) solution, then mixed for 2 minutes, and reacted by blocking light for 5 minutes, and then the luminescence signal was measured using an Envision multilabel reader (PerkinElmer). The cell viability was determined according to the formula below, and the concentration (EFFECT20) of Example B01 that induces 20% cell death was calculated using IDBS XLfit 5. The EFFECT20 concentration of Example B01 determined through the experiment was applied as the final treatment concentration of Example B01 during the combination effect experiment. [formula]
# In order to confirm the effect of Example B01 in combination with various anticancer agents, a total of 42 anticancer agents, including cytotoxic anticancer agents and targeted anticancer agents, were used for evaluation (Table 31). […]
# KRAS^G12C::SOS1 = target: T1, KRAS^G12C::SOS1 (Homo sapiens, UniProt Q07889); assay: KRAS G12C::SOS1 protein-protein interaction (PPI) inhibition assay (HTRF binding kit)
# T1 sequence (Q07889 1-1333): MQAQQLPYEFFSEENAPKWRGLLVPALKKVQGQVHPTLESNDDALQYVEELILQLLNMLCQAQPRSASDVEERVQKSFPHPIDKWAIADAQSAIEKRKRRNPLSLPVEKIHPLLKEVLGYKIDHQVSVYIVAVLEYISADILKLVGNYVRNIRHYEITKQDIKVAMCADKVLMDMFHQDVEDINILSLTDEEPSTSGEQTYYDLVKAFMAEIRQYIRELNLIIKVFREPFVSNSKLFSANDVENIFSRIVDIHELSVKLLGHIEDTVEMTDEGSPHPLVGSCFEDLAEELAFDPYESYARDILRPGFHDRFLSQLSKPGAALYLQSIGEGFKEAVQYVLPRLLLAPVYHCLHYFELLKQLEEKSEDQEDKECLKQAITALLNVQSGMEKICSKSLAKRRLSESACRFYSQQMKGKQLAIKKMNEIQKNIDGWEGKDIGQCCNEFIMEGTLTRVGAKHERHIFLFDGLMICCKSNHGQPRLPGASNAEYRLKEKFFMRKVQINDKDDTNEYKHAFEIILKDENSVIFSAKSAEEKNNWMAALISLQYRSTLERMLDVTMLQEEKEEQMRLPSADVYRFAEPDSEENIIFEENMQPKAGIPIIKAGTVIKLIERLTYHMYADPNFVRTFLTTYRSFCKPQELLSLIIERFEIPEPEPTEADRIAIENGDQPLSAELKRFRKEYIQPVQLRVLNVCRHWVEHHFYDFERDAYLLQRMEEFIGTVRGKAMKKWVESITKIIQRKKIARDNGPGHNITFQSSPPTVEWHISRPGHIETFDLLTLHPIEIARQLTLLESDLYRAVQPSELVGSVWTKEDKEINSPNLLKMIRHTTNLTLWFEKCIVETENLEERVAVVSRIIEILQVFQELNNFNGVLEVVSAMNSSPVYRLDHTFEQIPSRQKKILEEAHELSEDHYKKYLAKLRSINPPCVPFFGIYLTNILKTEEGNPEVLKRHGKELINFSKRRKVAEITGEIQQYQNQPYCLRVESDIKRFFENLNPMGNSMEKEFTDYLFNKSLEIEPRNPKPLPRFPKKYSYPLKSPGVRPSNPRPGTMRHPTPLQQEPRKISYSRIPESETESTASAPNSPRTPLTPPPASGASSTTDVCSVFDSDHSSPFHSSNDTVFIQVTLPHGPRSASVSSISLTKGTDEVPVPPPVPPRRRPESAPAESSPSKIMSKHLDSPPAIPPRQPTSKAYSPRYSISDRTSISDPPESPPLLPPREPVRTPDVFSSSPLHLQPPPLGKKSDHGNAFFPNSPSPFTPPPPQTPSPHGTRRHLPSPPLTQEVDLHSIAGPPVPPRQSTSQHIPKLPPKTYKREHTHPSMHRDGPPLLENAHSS
# SOS1 = target: T2, SOS1 (Homo sapiens, UniProt Q07889); assay: SOS-catalyzed nucleotide exchange assay (HTRF, SOS1-mediated GTP loading of KRAS G12D); format: biochemical
# T2 construct: adding equal amounts of HIS-SOS1cat (160 nM; Cytoskeleton, US); His; purchased Cytoskeleton, US
# T2 sequence (Q07889 564-1049 limits assumed): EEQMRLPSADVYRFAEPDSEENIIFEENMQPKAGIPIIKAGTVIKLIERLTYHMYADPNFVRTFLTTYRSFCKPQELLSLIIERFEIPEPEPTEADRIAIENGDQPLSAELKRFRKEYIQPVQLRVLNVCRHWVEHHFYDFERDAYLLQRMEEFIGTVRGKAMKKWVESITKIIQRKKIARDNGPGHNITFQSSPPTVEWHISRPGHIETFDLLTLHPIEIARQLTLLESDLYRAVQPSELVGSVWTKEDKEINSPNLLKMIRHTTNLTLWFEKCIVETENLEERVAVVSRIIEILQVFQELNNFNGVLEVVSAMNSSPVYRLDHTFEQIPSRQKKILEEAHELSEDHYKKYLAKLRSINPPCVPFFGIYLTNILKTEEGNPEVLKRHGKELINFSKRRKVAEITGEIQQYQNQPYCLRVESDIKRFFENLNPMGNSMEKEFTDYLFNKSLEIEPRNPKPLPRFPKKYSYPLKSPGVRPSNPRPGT
# Procedure, shortened: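 SOS1cat (HIS-tagged) preincubated 10 min at room temperature with compound (128 pM-10 µM), then GST-KRAS G12D with anti-GST terbium added; GTP loading tracked as HTRF with a DY-647P1 GTP analogue after 30 min, buffer HEPES pH 7.4. GEF-free wells for normalization; IC50 derived.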
# [2] = Cell viability with a combined anticancer agent plus Example B01 (Synergy 1 / Synergy 2); format: cell-based; conditions: culture time 72 h; printed in the anticancer agent concentration column
Structure (SMILES),concentration (EFFECT20) that induces 20% cell death ([1]; culture time 72 h) [nM],concentration (EFFECT20) that induces 20% cell death ([1]; culture time 120 h) [nM],IC50 (KRAS^G12C::SOS1) [µM],IC50 (SOS1) [µM],concentration dependence of the effect of the anticancer agent on cell viability [2]
"C[C@@H](NC(=O)c1ccc(=O)n(-c2cncc(-c3cnnn3C)c2)n1)c1cccc(C(F)(F)F)c1F [Example B01, N-[(1R)-1-[2-fluoro-3-(trifluoromethyl)phenyl]ethyl]-1-[5-(3-methyltriazol-4-yl)-3-pyridyl]-6-oxo-pyridazine-3-carboxamide]",1854,652,< 1,< 1,
"C[C@]12C=CC(=O)C=C1CC[C@@H]1[C@@H]2[C@@H](O)C[C@@]2(C)[C@H]1CC[C@]2(O)C(=O)CO [Prednisolone, prednisolone]",,,,,No concentration -dependent change
